Source: patent publication US11434242B2, “Dopamine-b-hydroxylase inhibitors” (BIAL-PORTELA & Cª, S.A., priority 2017, dated 2022)

Molecular target: T1, Dopamine beta hydroxylase (Homo sapiens, UniProt P09172)
T1 construct: 125 μl of plasma; tissue Instituto Português do Sangue Transplantação; host or cells: human plasma from healthy donors
T1 sequence (P09172 40-617 limits assumed): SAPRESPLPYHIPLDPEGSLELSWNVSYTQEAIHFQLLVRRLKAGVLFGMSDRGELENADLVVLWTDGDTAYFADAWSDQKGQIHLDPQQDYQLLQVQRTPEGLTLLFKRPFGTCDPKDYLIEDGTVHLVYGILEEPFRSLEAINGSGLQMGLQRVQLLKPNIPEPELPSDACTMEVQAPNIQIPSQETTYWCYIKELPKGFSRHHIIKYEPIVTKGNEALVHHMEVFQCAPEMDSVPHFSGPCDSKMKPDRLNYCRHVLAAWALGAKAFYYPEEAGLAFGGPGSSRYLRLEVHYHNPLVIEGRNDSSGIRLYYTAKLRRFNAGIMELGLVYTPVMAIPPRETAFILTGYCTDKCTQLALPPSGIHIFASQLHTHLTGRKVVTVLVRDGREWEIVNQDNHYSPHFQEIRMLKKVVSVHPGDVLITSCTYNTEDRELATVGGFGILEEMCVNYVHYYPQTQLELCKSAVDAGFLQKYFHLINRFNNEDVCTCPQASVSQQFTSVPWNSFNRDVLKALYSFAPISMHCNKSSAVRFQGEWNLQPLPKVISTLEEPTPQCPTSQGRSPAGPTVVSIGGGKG
Assay: Dopamine beta hydroxylase activity in human plasma
Format: biochemical
Settings: for Plasma (0.01 μM), activity in % of control: inhibitor 0.01 μM; for Plasma (0.1 μM), activity in % of control: inhibitor 0.1 μM; for Plasma (1 μM), activity in % of control: inhibitor 1 μM
Procedure, shortened: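 Octopamine production from tyramine over 45 min at 37° C, measured photometrically at 330 nm after SCX extraction and periodate oxidation against an octopamine standard curve, indicates plasma DβH activity. Compounds tested at final 10, 100 and 1000 nM in human plasma, pH 5.0 cofactor buffer, 10 min preincubation; results as % of control.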

Plasma (0.01 μM), activity in % of control	Plasma (0.1 μM), activity in % of control	Plasma (1 μM), activity in % of control	Compound
90.9 % of control	52.1 % of control		O=C(Cc1[nH]c(=S)n2c1[C@@H]1C[C@]1(c1cc(Cl)ccc1F)C2)N1CCCCC1 [Example 158, 2-((5aS,6aR)-5a-(5-chloro-2-fluorophenyl)-3-thioxo-2,3,5,5a,6,6a-hexahydrocyclopropa[3,4]pyrrolo[1,2-c]imidazol-1-yl)-1-(piperidin-1-yl)ethan-1-one]
94.3 % of control	64.8 % of control		Cn1c(CCNC(C)(C)C)c2n(c1=S)C[C@@H](c1c(F)ccc(F)c1F)C2 [Example 476, (R)-1-(2-(tert-butylamino)ethyl)-2-methyl-6-(2,3,6-trifluorophenyl)-2,5,6,7-tetrahydro-3H-pyrrolo[1,2-c]imidazole-3-thione Hydrofluoride]
105.9 % of control	66.6 % of control		Fc1cc(F)c(F)c([C@H]2Cc3c(CCc4ccccn4)[nH]c(=S)n3C2)c1F [Example 213, (R)-1-(2-(pyridin-2-yl)ethyl)-6-(2,3,5,6-tetrafluorophenyl)-2,5,6,7-tetrahydro-3H-pyrrolo[1,2-c]imidazole-3-thione]
42.1 % of control	7.3 % of control		CN1CC(NC(=O)Cc2c3n(c(=S)n2C)C[C@H](c2c(F)ccc(Br)c2F)C3)CCC1=O (stereo partly drawn) [Example 457, 2-((S)-6-(3-bromo-2,6-difluorophenyl)-2-methyl-3-thioxo-2,5,6,7-tetrahydro-3H-pyrrolo[1,2-c]imidazol-1-yl)-N-(1-methyl-6-oxopiperidin-3-yl)acetamide]
42.7 % of control	7.2 % of control		O=C(NCc1[nH]c(=S)n2c1C[C@@H](c1c(F)ccc(Cl)c1F)C2)c1cccnc1 [Example 223, (S)—N-((6-(3-chloro-2,6-difluorophenyl)-3-thioxo-2,5,6,7-tetrahydro-3H-pyrrolo[1,2-c]imidazol-1-yl)methyl)nicotinamide]
83.6 % of control	32.9 % of control		Cn1c(CC(=O)N[C@@H]2CCOC2)c2n(c1=S)C[C@@H](c1c(F)ccc(F)c1F)C2 [Example 244, 2-((R)-2-methyl-3-thioxo-6-(2,3,6-trifluorophenyl)-2,5,6,7-tetrahydro-3H-pyrrolo[1,2-c]imidazol-1-yl)-N—((R)-tetrahydrofuran-3-yl)acetamide]
51.9 % of control	21.1 % of control		Cn1c(CC(=O)NCC#N)c2n(c1=S)C[C@@]1(c3cc(Cl)ccc3F)C[C@@H]21 [Example 304, 2-((5aS,6aR)-5a-(5-chloro-2-fluorophenyl)-2-methyl-3-thioxo-2,3,5,5a,6,6a-hexahydrocyclopropa[3,4]pyrrolo[1,2-c]imidazol-1-yl)-N-(cyanomethyl)acetamide]
82.6 % of control	70.1 % of control		Cn1c(CCC(N)=O)c2n(c1=S)C[C@H](c1c(F)ccc(Cl)c1F)C2 [Example 262, (S)-3-(6-(3-chloro-2,6-difluorophenyl)-2-methyl-3-thioxo-2,5,6,7-tetrahydro-3H-pyrrolo[1,2-c]imidazol-1-yl)propanamide]
80.0 % of control	36.0 % of control		Cn1c(CC(=O)N[C@@H]2CCOC2)c2n(c1=S)C[C@H](c1cc(Cl)ccc1F)C2 [Example 251, 2-((S)-6-(5-chloro-2-fluorophenyl)-2-methyl-3-thioxo-2,5,6,7-tetrahydro-3H-pyrrolo[1,2-c]imidazol-1-yl)-N—((R)-tetrahydrofuran-3-yl)acetamide]
39.7 % of control	1.7 % of control		Cn1c(CC(=O)NC2CCCCC2)c2n(c1=S)C[C@@]1(c3cc(Br)ccc3F)C[C@@H]21 [Example 294, 2-((5aS,6aR)-5a-(5-bromo-2-fluorophenyl)-2-methyl-3-thioxo-2,3,5,5a,6,6a-hexahydrocyclopropa[3,4]pyrrolo[1,2-c]imidazol-1-yl)-N-cyclohexylacetamide]
	52.4 % of control	9.7 % of control	O=C(Cc1[nH]c(=S)n2c1C[C@@H](c1c(F)ccc(Cl)c1F)C2)N1CCCC1 [Example 110, (S)-2-(6-(3-chloro-2,6-difluorophenyl)-3-thioxo-2,5,6,7-tetrahydro-3H-pyrrolo[1,2-c]imidazol-1-yl)-1-(pyrrolidin-1-yl)ethan-1-one]
62.3 % of control	9.0 % of control		[2H]C([2H])([2H])n1c(CC(=O)N[C@@H]2CCOC2)c2n(c1=S)C[C@@]1(c3cc(Br)ccc3F)C[C@@H]21 [Example 465, 2-((5aS,6aR)-5a-(5-bromo-2-fluorophenyl)-2-(methyl-d)-3-thioxo-2,3,5,5a,6,6a-hexahydrocyclopropa[3,4]pyrrolo[1,2-c]imidazol-1-yl)-N—((R)-tetrahydrofuran-3-yl)acetamide]
83.3 % of control	33.3 % of control		Cn1c(CC(=O)O)c2n(c1=S)C[C@@]1(c3cc(Cl)ccc3F)C[C@@H]21 [Example 276, 2-((5aS,6aR)-5a-(5-chloro-2-fluorophenyl)-2-methyl-3-thioxo-2,3,5,5a,6,6a-hexahydrocyclopropa[3,4]pyrrolo[1,2-c]imidazol-1-yl)acetic Acid]
60.0 % of control	16.2 % of control		O=C(Cc1[nH]c(=S)n2c1[C@@H]1C[C@]1(c1c(F)ccc(Cl)c1F)C2)NCCn1cccn1 [Example 142, N-(2-(1H-pyrazol-1-yl)ethyl)-2-((5aS,6aR)-5a-(3-chloro-2,6-difluorophenyl)-3-thioxo-2,3,5,5a,6,6a-hexahydrocyclopropa[3,4]pyrrolo[1,2-c]imidazol-1-yl)acetamide]
89.2 % of control	69.1 % of control		Fc1cc(F)c(F)c([C@H]2Cc3c(CCc4ccncc4)[nH]c(=S)n3C2)c1F [Example 218, (R)-1-(2-(pyridin-4-yl)ethyl)-6-(2,3,5,6-tetrafluorophenyl)-2,5,6,7-tetrahydro-3H-pyrrolo[1,2-c]imidazole-3-thione]
59.5 % of control	20.6 % of control		Cn1c(CC(=O)O)c2n(c1=S)C[C@H](c1c(F)ccc(Cl)c1F)C2 [Example 424, (S)-2-(6-(3-chloro-2,6-difluorophenyl)-2-methyl-3-thioxo-2,5,6,7-tetrahydro-3H-pyrrolo[1,2-c]imidazol-1-yl)acetic acid]
	66.0 % of control	11.4 % of control	O=C(O)Cc1[nH]c(=S)n2c1C[C@H](c1c(F)c(F)cc(F)c1F)C2 [Example 15, (R)-2-(6-(2,3,5,6-tetrafluorophenyl)-3-thioxo-2,5,6,7-tetrahydro-3H-pyrrolo[1,2-c]imidazol-1-yl)acetic Acid]
